Test results taken from patent publication US11415513B2, “Method for determining the degree of sensitivity of a strain of fungus to an antifungal agent” (UNIVERSITE GRENOBLE ALPES, priority 2015, dated 2022).
Converted amounts (≈) assume the structure as drawn. Starred links: 1 amine or outer side, 2 acyl side, 3 side chain; linkers in the order of their positions; H or OH if unused. Positions of bridges follow the written chain, without caps; N, C: chain ends. Non-standard residues stand in square brackets, D forms with d. Residues, ends and D or L forms follow the SMILES beside them. *: point of attachment. hTyr(3S-OH,4S-OH,3'-OSO3H) = N[C@H](C(=O)O)[C@H](O)[C@@H](O)c1ccc(O)c(OS(=O)(=O)O)c1; Orn(4R-OH,5R-OH) = O=C([C@H](C[C@@H](O)[C@@H](O)N[*:3])N[*:1])[*:2]; Pro(3S-OH,4S-Me) = C[C@H]1CN[C@H](C(=O)O)[C@H]1O; X1 = CCCCCOc1ccc(-c2cc(-c3ccc(C(=O)*)cc3)no2)cc1; Gln(3R-OH) = NC(=O)C[C@@H](O)[C@H](N)C(=O)O; Hyp = O=C(O)[C@@H]1C[C@@H](O)CN1

How the values were obtained:
[1] = system: strain ATCC®6258 of C. krusei; assay: Sensitivity test by HCA microscopy (chitin level, Calcofluor White; cell count); type: cell-based, Candida krusei
Experimental: (§1) The strains of Candida were incubated beforehand at 30° C. overnight in a yeast extract medium—peptone dextrose (YPD) (1% bacto peptone, 0.5% yeast extract, 2% glucose, 1.5% agar).
(§2) Yeast colonies were then removed from YPD medium plates and suspended in a 0.9% NaCl saline solution, in which the cell concentration was estimated by optical microscopy using Kova counting slides.
(§3) A dilution was performed to obtain 15 ml of an inoculum at 3×10^6 CFU/ml, in a synthetic complete (SC) medium at pH 7 (2% glucose, 0.5% ammonium sulfate, 0.17% nitrogen-containing yeast base, 0.2% synthetic complete mixture, and 10% HEPES 1.5M pH 7.2) for C. albicans, C. parapsilosis, C. tropicalis and C. krusei, and in a solution of RPMI 1640 pH 7.3 (10% HEPES 1M pH 7.2) for C. glabrata, so as to reduce the formation of septa and clusters.
(§4) 1 ml of inoculum was then added to 2 ml of antifungal solution prepared in an SC or RPMI medium depending on the species of fungus, so as to obtain a final concentration of yeast of 10^6 CFU/ml and the desired concentration of antifungal agent according to table 1.
(§5) After homogenisation, the cultures were placed at 30° C. at 200 rpm, with the exception of cultures of C. glabrata, which were placed at 35° C. at 200 rpm, and incubated for a period of 6.5 h or 24 h.
(§6) After incubation, 100 μl of the culture of fungi obtained above were transferred in triplicate to 96-well plates, and 2.5 μl of Calcofluor White (CFW) were added to each well so as to mark the chitin of the cell walls of the yeasts.
(§7) A step of acquiring images by automated fluorescence microscopy (ScanR screening station, Olympus), using a 40× lens and a CFW filter, made it possible to obtain 30 images per well so as to capture enough cells to provide statistically significant data. These images were analysed by software (ScanR analysis software, Olympus). Firstly, the background noise was processed so as to improve the contrast between the fluorescence of the yeasts and background noise. A pixel threshold was then defined. Segmentation of the fluorescent elements present in each of the acquired images was then performed using an algorithm predefined in the software, making it possible to determine the limit of each element on the basis of the fluorescence intensity of said element. A size parameter was then applied to select the yeasts and eliminate the aggregates and the fluorescent debris.
(§8) Each element then corresponding to a yeast, it was thus possible, on the basis of these elements predefined beforehand, to define the fluorescence intensity for each of the yeasts, this intensity being directly correlated with the chitin content of their wall.
(§9) On the basis of said defined elements, it was also possible to automatically count the yeasts,
The strain ATCC®6258 of C. krusei was cultivated as described in paragraph I of the Examples section so as to obtain an inoculum at 3×10^6 CFU/ml in 15 ml of SC medium.
(§10) 2 ml of fluconazole solution prepared in the SC medium were then added to 1 ml of this inoculum so as to obtain a final concentration of yeast of 10^6 CFU/ml and of 128 μg/ml in fluconazole. […]
(§11) The chitin level in the cell wall of the yeasts was then measured by […] analysis (HCA) microscopy, as described in paragraph II of the Examples section, in triplicate for each condition of concentration of fluconazole and without fluconazole. […]

[2] = system: strain GRE32 of C. krusei; assay: as above; type: cell-based, Candida krusei
Experimental: as §1, §2, §3, §4, §5, §6, §7, §8, §9
The strain GRE32 of C. krusei was cultivated as described in paragraph I of the Examples section so as to obtain an inoculum at 3×10^6 CFU/ml in 15 ml of SC medium.
as §10, §11

[3] = system: strain SC5314 of C. albicans; assay: Etest method (MIC); type: cell-based, Candida albicans; settings: RPMI medium plates, 24 h at 35° C.; for MIC: Candida albicans, SC5314
Experimental: (§12) The Etest® method is a commercial test for determining the sensitivity of a strain, most frequently used routinely in clinical mycology laboratories.
(§13) The Etest® tests were performed according to the manufacturer's instructions. After distributing a standardised Mac Farland 0.5 inoculum (equivalent of […]) over plates of RPMI medium, said plates were incubated for 24 h at 35° C., with the exception of C. glabrata in which case the incubation was extended to 48 h so as to be able to determine the minimum inhibitory concentration (MIC).
(§14) The results of the MICs obtained were interpreted in accordance with the tables of the CLSI (Clinical and Laboratory Standards Institute) and/or of EUCAST (European Committee on Antimicrobial Susceptibility Testing) (Arendrup M C, Cuenca-Estrella M, Lass-Flörl C, Hope W W (2014) Breakpoints for antifungal agents: an update from EUCAST focussing on echinocandins against Candida spp and triazoles against Aspergillus spp. Drug Resist Updat 16(6):81-95. doi:10.1016/j.drup.2014.01.001) (cf. Table 2 taken from Maubon D, Garnaud C, Calandra T, et al. (2014) Resistance of Candida spp. to antifungal drugs in the ICU: where are we now? Intensive Care Med. doi: 10.1007/s00134-014-3404-7) which list the clinical thresholds (CBPs) for the most common species of yeast of the genus Candida as a function of different antifungal agents, or according to the table of epidemiological thresholds (ECVs).

[4] = system: strain DSY296 of C. albicans; assay: Etest method (MIC); type: cell-based, Candida albicans; settings: RPMI medium plates, 24 h at 35° C.; for MIC: Candida albicans
Experimental: as §12, §13, §14

[5] = system: strain 13/5 of C. tropicalis; assay: Etest method (MIC); type: cell-based, Candida tropicalis; settings: RPMI medium plates, 24 h at 35° C.
Experimental: as §12, §13, §14

[6] = vs cells in the absence of antifungal agent, 6.5 h at 30° C., SC medium, concentration gradient of Table 1

For OC(Cn1cncn1)(Cn1cncn1)c1ccc(F)cc1F [fluconazole], the “phenotype of the strain with respect to the antifungal agent (HCA)” value (“phenotype of the strain” for short) ([1]; 6.5 h at 30° C., SC medium) was “resistant (an increase in the chitin level having a value less than 10% or a decrease in the chitin level of less than 20% or an unchanged chitin level)”, the “increase in the chitin level in the wall of the cells” value [1, 6] was “less than 10%” and the “phenotype of the strain” value ([2]; 6.5 h at 30° C., SC medium) was “resistant (an increase in the chitin level having a value less than 10% or a decrease in the chitin level of less than 20% or an unchanged chitin level)”. The “decrease in the chitin level in the wall of the cells” value [2, 6] was “less than 20%”, the MIC [3] was 0.125 µg/mL (≈ 0.408 µM) and the “phenotype by Etest MIC, interpretation by the EUCAST and CLSI tables” value (from here on “phenotype … by the EUCAST and CLSI tables”) [3] was “sensitive”. The MIC [4] was 96 µg/mL (≈ 313 µM) and the “phenotype … by the EUCAST and CLSI tables” value [4] was “resistant”.
With CCCCCOc1ccc(-c2cc(-c3ccc(C(=O)N[C@H]4C[C@@H](O)[C@@H](O)NC(=O)[C@@H]5[C@@H](O)[C@@H](C)CN5C(=O)[C@H]([C@H](O)CC(N)=O)NC(=O)[C@H]([C@H](O)[C@@H](O)c5ccc(O)c(OS(=O)(=O)O)c5)NC(=O)[C@@H]5C[C@@H](O)CN5C(=O)[C@H]([C@@H](C)O)NC4=O)cc3)no2)cc1 [micafungin] (X1-[Orn(4R-OH,5R-OH)]T[Hyp][hTyr(3S-OH,4S-OH,3'-OSO3H)][Gln(3R-OH)][Pro(3S-OH,4S-Me)]; lactam 1-C) the MIC ([5]; Candida tropicalis) was 1.5 µg/mL (≈ 1.18 µM) and the “phenotype by Etest MIC, interpretation by the CLSI table” value [5] was “resistant”.
In the case of C[C@@H](c1ncncc1F)[C@](O)(Cn1cncn1)c1ccc(F)cc1F [voriconazole], the “phenotype of the strain” value ([1]; 24 h at 30° C., RPMI medium) is reported as “intermediate (an increase in the chitin level having a value of from 10% to a value less than 20%)”, the “decrease of the number of cells” value ([1]; vs cells in the absence of antifungal agent, 24 h at 30° C., RPMI medium) is reported as “less than 0.3 log” and the “increase of the chitin level in the wall of the cells” value ([1]; vs cells in the absence of antifungal agent, 24 h at 30° C., RPMI medium, concentration gradient of Table 1) is reported as “greater than or equal to 20%”. For the same compound, the “phenotype of the strain” value ([2]; 24 h at 30° C.) was “intermediate (an increase in the chitin level having a value of from 10% to a value less than 20%)”, the “decrease of the number of cells” value ([2]; vs cells in the absence of antifungal agent, 24 h at 30° C.) was “less than 0.3 log” and the “increase in the chitin level in the wall of the cells” value ([2]; vs cells in the absence of antifungal agent, 24 h at 30° C., inoculum in SC medium, antifungal solution in RPMI medium, concentration gradient of Table 1) was “greater than or equal to 20%”. The MIC [3] was 0.012 µg/mL (≈ 0.0344 µM), the “phenotype … by the EUCAST and CLSI tables” value [3] was “sensitive” and the MIC [4] was 1 µg/mL (≈ 2.86 µM). For the same compound, the “phenotype … by the EUCAST and CLSI tables” value [4] was “resistant”.
